Molecules are shown by their SMILES. Active and inactive are the calls of the source.

Assay [1] concerns the target Tyrosine-protein kinase Lck (Homo sapiens, UniProt P06239). It counts as functional.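 Note: lck was assayed as one member of a kinase panel.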
Assay [2] deals with Dual specificity tyrosine-phosphorylation-regulated kinase 1B (Homo sapiens, UniProt Q9Y463). As to the kind of experiment: Navigating the Kinome. Panel member name: DYRK1B. It counts as functional.
The target of the next assay is LIM domain kinase 1 (Homo sapiens, UniProt P53667). Put plainly: Navigating the Kinome. Panel member name: LIMK1. It counts as functional.
Assay [3] has as its target Serine/threonine-protein kinase D3 (Homo sapiens, UniProt O94806). The assay is classed as functional.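 Note: determined within a kinase panel screen, with PRKCN as the panel member.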
The target in assay [4] is Dual specificity mitogen-activated protein kinase kinase 2 (Homo sapiens, UniProt P36507). As to the kind of experiment: Navigating the Kinome. Panel member name: MAP2K2. It counts as functional.
Assay [5] concerns the target T1, Sentrin-specific protease 6 (Homo sapiens, UniProt Q9GZR1).
T1 sequence (Q9GZR1 whole entry): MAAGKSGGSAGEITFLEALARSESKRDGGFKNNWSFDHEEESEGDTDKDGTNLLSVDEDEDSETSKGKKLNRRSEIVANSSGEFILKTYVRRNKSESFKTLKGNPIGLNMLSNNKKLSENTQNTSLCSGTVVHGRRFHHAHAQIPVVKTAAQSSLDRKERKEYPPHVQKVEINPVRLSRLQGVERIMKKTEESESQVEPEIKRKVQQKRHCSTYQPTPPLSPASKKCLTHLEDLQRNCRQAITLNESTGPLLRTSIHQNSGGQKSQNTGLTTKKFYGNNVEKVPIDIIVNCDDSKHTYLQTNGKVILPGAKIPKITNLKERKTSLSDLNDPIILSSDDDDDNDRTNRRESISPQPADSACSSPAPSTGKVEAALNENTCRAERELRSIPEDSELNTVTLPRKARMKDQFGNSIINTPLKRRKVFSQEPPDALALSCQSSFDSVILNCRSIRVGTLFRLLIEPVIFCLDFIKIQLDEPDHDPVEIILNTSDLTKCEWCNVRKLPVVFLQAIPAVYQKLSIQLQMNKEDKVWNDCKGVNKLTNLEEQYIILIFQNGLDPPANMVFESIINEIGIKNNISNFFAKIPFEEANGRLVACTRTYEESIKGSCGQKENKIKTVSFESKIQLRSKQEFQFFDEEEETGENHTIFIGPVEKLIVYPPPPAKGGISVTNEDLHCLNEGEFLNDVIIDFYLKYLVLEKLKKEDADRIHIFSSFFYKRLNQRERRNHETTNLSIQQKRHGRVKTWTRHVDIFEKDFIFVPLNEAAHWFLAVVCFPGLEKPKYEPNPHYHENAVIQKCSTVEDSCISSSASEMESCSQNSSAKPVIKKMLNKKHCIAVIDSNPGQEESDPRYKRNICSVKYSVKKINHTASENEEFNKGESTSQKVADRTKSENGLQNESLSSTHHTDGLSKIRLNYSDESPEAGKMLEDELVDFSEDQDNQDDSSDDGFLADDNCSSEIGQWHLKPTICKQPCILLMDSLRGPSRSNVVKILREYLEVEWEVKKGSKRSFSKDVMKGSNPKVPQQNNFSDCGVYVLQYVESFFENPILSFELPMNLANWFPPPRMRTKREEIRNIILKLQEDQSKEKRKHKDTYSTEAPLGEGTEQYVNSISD
As to the kind of experiment: SAR Analysis of small molecule inhibitors of Sentrin-specific protease 6 (SENP6) using a Luminescent assay. [Related pubchem assays (depositor defined):AID2582, AID2599]. The assay is classed as functional.

The target of another assay is T2, ORF 73 (Human herpesvirus 8, UniProt O40947).
T2 sequence (O40947 whole entry): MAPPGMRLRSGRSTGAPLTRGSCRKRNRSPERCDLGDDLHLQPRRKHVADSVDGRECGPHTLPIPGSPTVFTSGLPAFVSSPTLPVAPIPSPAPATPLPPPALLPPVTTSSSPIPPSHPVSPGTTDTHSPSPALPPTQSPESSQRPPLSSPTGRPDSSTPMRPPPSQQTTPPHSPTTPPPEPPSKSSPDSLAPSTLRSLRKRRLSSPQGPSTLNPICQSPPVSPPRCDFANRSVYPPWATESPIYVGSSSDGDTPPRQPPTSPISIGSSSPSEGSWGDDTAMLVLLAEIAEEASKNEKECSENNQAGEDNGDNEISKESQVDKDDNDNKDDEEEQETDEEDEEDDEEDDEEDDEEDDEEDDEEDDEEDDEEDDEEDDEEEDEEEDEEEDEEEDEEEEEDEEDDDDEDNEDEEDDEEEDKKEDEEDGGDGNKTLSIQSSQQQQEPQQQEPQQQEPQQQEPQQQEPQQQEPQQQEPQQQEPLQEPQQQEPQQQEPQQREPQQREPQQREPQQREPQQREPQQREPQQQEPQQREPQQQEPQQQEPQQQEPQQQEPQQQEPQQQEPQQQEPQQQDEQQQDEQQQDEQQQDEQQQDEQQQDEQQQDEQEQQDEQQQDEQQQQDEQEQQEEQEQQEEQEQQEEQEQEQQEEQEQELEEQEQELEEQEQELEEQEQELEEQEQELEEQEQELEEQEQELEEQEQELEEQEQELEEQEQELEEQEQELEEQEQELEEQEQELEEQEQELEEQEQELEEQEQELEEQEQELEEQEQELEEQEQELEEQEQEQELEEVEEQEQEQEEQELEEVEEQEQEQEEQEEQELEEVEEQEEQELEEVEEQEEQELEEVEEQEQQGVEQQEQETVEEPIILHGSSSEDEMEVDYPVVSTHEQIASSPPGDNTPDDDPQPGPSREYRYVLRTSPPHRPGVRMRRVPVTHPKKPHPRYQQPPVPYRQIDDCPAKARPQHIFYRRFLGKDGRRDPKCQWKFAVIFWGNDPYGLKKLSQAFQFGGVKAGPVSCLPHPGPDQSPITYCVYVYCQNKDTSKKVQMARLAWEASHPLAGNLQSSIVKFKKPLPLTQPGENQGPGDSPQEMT
Put plainly: inhibitors of C-LANA binding to LBS DNA, dose response, biochemical, fluorescence polarization, cherry-picked samples (AID 504725).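 Note: fluorescence polarization of a labeled DNA duplex reporting LANA DNA binding; potency is for inhibitors that block LANA binding to the DNA.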 Set-up: species or system Human gammaherpesvirus 8.

The test system of the next assay is HEK293. Put plainly: optical interference in Abeta FP readout, dose response, artefact control for IDE activator project, biochemical, fluorescence polarization (AID 588442). The following applies: Homo sapiens. The assay is classed as functional, cell-based. On the technique in general: In fluorescence polarisation assays a small probe gives low polarisation when free and higher when bound to something large.

The target of assay [6] is T3, Dual specificity protein phosphatase 6 (Rattus norvegicus, UniProt Q64346).
T3 sequence (Q64346 whole entry): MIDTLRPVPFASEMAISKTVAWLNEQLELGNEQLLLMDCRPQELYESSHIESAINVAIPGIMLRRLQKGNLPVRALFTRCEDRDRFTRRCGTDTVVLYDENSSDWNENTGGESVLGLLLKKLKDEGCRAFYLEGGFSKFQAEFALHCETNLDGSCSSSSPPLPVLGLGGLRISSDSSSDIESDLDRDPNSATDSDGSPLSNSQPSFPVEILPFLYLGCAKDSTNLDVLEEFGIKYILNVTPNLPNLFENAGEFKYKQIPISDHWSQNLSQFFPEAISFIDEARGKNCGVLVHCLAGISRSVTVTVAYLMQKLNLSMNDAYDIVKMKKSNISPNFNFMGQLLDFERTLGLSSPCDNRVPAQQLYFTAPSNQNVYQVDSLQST
Put plainly: MKP-3 phosphatase inhibitors, primary screen, biochemical, rat enzyme, in vitro (AID 425).

Sequence of LIM domain kinase 1 (P53667 whole entry, the tested form may be a part): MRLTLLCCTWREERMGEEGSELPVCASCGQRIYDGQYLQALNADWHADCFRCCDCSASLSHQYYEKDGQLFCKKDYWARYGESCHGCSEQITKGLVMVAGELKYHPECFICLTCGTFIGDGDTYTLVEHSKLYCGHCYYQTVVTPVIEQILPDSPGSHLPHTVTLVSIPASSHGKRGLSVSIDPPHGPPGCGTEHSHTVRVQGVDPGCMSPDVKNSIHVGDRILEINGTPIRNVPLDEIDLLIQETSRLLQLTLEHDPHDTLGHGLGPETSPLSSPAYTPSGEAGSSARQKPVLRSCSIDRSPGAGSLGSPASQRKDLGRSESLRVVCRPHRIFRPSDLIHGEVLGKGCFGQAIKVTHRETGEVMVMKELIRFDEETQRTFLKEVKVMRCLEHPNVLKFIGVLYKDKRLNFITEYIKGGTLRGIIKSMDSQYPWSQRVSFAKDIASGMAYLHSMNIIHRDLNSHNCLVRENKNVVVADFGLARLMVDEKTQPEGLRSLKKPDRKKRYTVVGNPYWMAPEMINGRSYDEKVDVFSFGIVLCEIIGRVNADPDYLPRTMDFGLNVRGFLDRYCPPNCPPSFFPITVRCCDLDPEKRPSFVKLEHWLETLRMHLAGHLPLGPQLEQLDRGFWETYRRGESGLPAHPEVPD
Sequence of Serine/threonine-protein kinase D3 (O94806 whole entry): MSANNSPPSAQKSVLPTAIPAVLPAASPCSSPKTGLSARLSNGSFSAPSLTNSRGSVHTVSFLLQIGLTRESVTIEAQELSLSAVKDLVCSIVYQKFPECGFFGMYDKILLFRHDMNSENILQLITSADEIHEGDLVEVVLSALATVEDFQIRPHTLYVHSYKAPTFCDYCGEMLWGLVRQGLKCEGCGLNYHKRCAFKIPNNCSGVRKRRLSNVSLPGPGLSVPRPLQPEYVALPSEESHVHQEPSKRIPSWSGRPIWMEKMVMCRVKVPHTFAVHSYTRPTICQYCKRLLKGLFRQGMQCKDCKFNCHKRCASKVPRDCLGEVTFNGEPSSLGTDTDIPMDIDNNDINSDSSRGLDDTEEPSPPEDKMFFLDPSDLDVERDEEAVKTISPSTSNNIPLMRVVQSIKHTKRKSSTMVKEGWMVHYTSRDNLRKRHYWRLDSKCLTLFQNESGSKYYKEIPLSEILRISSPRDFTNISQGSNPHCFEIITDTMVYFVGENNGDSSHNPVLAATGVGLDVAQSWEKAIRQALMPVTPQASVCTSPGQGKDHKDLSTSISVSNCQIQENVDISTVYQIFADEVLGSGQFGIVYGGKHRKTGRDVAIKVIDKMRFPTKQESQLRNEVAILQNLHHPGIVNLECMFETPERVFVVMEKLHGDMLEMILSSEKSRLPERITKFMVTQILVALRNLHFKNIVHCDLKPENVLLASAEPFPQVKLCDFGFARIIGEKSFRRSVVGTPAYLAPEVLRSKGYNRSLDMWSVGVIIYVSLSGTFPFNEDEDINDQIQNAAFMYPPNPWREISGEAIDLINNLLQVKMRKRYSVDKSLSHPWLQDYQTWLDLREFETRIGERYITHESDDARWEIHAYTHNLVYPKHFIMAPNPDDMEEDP
Sequence of Dual specificity tyrosine-phosphorylation-regulated kinase 1B (Q9Y463 whole entry, the tested form may be a part): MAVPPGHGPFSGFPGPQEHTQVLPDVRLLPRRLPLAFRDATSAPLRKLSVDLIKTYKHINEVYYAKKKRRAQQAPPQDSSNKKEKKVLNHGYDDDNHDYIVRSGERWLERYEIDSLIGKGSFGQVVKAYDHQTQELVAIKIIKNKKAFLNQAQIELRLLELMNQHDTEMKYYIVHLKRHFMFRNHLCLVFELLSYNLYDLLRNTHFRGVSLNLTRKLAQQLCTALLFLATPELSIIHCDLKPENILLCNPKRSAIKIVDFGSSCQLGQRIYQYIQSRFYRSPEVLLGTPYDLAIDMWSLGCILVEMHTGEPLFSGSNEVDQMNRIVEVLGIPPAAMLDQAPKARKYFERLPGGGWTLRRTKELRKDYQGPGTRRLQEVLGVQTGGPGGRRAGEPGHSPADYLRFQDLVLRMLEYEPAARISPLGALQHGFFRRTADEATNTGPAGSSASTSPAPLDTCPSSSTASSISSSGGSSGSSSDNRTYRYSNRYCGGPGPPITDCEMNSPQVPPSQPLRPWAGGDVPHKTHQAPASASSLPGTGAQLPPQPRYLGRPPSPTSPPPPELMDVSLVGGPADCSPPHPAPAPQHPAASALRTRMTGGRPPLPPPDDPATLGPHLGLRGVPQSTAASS
Sequence of Dual specificity mitogen-activated protein kinase kinase 2 (P36507 whole entry): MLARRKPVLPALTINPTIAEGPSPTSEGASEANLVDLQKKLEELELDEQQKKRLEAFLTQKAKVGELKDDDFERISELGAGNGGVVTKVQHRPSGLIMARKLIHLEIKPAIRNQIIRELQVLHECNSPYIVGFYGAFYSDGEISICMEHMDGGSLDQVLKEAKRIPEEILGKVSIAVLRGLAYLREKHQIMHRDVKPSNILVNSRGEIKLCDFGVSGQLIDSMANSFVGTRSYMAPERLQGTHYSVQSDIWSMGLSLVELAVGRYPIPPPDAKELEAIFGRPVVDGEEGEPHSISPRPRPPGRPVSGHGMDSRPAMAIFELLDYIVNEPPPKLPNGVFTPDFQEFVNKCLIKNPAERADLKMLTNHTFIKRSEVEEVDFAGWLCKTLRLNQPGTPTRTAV
Sequence of Tyrosine-protein kinase Lck (P06239 whole entry): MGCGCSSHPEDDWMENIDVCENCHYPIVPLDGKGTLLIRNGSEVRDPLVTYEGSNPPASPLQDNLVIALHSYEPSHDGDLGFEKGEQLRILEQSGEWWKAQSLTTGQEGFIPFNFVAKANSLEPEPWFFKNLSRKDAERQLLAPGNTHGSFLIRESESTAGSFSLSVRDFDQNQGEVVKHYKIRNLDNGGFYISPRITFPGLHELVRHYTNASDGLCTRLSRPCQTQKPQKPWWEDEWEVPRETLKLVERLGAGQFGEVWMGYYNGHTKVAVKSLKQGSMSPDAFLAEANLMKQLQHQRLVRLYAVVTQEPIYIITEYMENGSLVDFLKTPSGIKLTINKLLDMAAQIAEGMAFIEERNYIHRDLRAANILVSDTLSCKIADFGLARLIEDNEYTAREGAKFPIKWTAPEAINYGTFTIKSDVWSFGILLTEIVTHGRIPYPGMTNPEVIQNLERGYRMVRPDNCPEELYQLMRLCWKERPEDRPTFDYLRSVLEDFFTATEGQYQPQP

One may read the Ki as the dissociation constant of the complex between target and ligand, obtained from inhibition or displacement. Turning to `O=C(Cc1cccs1)Nc1nc2ccccc2s1`, the Ki in assay [1] is > 6.31 µM (inactive); in assay [2] it was 0.794 µM (active); on LIM domain kinase 1, 0.158 µM (active); in assay [3], 3.16 µM (active); in assay [4] it was 0.794 µM (active).
The IC50 is the concentration that inhibits the measured activity by half. As for `O=C(NNc1cc(N2CCCC2)nc(N2CCCC2)n1)c1ccc([N+](=O)[O-])cc1`, the IC50 in [5] was 1.43 µM (active).
Usually AC50 stands for the concentration at which the activity in the assay is half-maximal. Broadly, the EC50 is the midpoint of the concentration-response curve. On to `O=S(=O)(O)c1cccc2c(N=Nc3ccc(O)c4ncccc34)cccc12`, for which the AC50 on ORF 73 was 64.1 µM (active). In the assay on HEK293, the EC50 is 5.53 µM (active). Moreover, the IC50 in assay [6] is 71.5 µM (active).

The values above are taken from ChEMBL document CHEMBL1201862, “PubChem BioAssay data set” (2004).
